For one assay, the system named is S. pneumoniae. Nature of the assay: drug sensitivity test of the pathogenic bacterium from blood culture. It is filed as cell-based, Streptococcus pneumoniae. The conditions noted are these: Case 2, isolate from blood specimen sampled before antibiotic treatment. The procedure:
(§1) According to Step 1 to Step 4 of Example 1, a pathogenic bacterium rapid quantification test using sepsis patient's specimens (EDTA blood collection tube, 2 mL) was carried out. […] Blood was sampled before treatment with an antibiotic (pretreatment), and 24 hours (after 24 hrs.) and 72 hours (after 72 hrs.) after administration of the antibiotic. At the three points, a pathogenic bacterium rapid quantification test was carried out together with measurement of body temperature, white blood cell count, CRP, presepsin and IL-6. Furthermore, a blood specimen sampled before the antibiotic treatment was subjected to a blood culture method to identify a pathogenic bacterium and subjected to a drug sensitivity test. General information about individual cases is as follows.

The next assay has as its system K. oxytoca. Described as above. The format is cell-based, Klebsiella oxytoca. The conditions noted are these: Case 2, isolate from blood specimen sampled before antibiotic treatment. As to the method: as §1
The test system of assay [1] is Klebsiella oxytoca, Haemophilus influenzae, Streptococcus pneumoniae. The assay can be described thus: Case 2: pathogen count (nested PCR) and biomarkers in blood before/after antibiotic treatment. The format is in vivo, human (sepsis patient). The conditions noted are these: for BT (body temperature): pretreatment 39.2; for WBC: pretreatment 108.8; for CRP: pretreatment 150.3; for Presepsin: pretreatment 5379; for IL-6: pretreatment 122000; for Pathogen (Ave): pretreatment 175270. As to the method: (§2) First, bacterial cells were collected from a blood specimen by centrifuging the whole blood at a low rate of 100×g for 5 minutes to separate blood cells, centrifuging the resultant supernatant (containing buffy coat) at a high rate of 20,000×g for 10 minutes to obtain a pellet.
(§3) Using DNA of a pathogenic bacterium taken from the blood specimen according to the method of Step 1 as a template, nested PCR (1st PCR: 30 cycle→100 double dilution→2nd PCR: 30 to 35 cycles) is carried out. The bacterial cells in patient specimens vary in a wide range from very small to large number. Since it is difficult to accurately determine the bacterial number in a single cycle of PCR, nested PCR methods are used in combination.
(§4) Subsequently, using pathogenic bacterium DNA of Step 1 as a template, nested PCR was carried out together with a quantification control in the conditions described in Step 2. In the 1st PCR and 2nd PCR for quantification, the following bacterial universal primer (primer for detecting almost all bacteria) was used. The target region of the bacterial universal primer is a bacterial conserved region (base sequence region common in almost all bacteria) of a 16S ribosomal RNA gene. A predetermined bacterium is quantified by a bacterial species-specific primer; however, a pathogenic bacterium is not identified in the early stage of sepsis. Because of this, a bacterial species-specific primer cannot be used. Accordingly, unless a bacterial universal primer is used, an unidentified bacterium cannot be detected.
(§5) As mentioned above, E. coli DNA samples of three different concentrations and of a known bacterial number were used as quantification controls. Based on the data of three quantification controls different in concentration, a calibration curve was prepared. Based on bacterial DNA extracted from a patient specimen, the number of pathogenic bacterial cells was determined. Since the number of bacterial cells was obtained as an E. coli cell-number equivalent used as a quantification control, the number of bacterial cells in a specimen can be more easily, rapidly and accurately determined.
as §1

A further assay concerns H. influenzae. The assay can be described thus: drug sensitivity test of the pathogenic bacterium from blood culture. It is filed as cell-based, Haemophilus influenzae. The note with it: Case 2, isolate from blood specimen sampled before antibiotic treatment. As to the method: as §1
For assay [2], the system named is Escherichia coli. The assay can be described thus: Case 4: pathogen identification/quantification and biomarkers in blood before/after antibiotic treatment. The format is in vivo, human (sepsis patient). The note with it: for BT (body temperature): pretreatment 37.0; for IL-6: pretreatment 122; for CRP: pretreatment 185.9; for WBC: pretreatment 285.6; for Presepsin: pretreatment 1298; for Pathogen (Ave): pretreatment 1314. The procedure: as §2, §3, §4, §5
For the reason, it is necessary to make a correction based on the operon copy number per bacterium species in order to more accurately determine bacterial number. Since identification and qualification of a pathogenic bacterium are carried out concurrently in Step 3 and Step 4, the number of pathogenic bacterial cells can be corrected based on 16S ribosomal RNA operon copy number of the bacterium identified to computationally obtain the correct number of bacterial cells.
as §1, with “Step 5” for “Step 4”, “rapid identification/quantification” for “rapid quantification”
Case 4: • person, sepsis associated with urinary tract infection • Tm mapping method: Escherichia coli (Dist. value=0.29) • blood culture/urine culture: Escherichia coli • antibiotics substance: meropenem (sensitive)

Assay [3] relates to Escherichia coli. The assay can be described thus: Case 1: pathogen count (nested PCR) and biomarkers in blood before/after antibiotic treatment. It is filed as in vivo, human (sepsis patient). The conditions noted are these: for BT (body temperature): pretreatment 37.0; for IL-6: pretreatment 122; for CRP: pretreatment 185.9; for WBC: pretreatment 285.6; for Presepsin: pretreatment 1298; for Pathogen (Ave): pretreatment 1314. The procedure:
as §2, §3, §4, §5, §1
Case 1: • person, sepsis associated with urinary tract infection • blood culture/urine culture: Escherichia coli • antibiotic substance: meropenem (sensitive)

Assay [4] relates to Escherichia coli. Nature of the assay: drug sensitivity test of the pathogenic bacterium from blood culture. It is filed as cell-based. The note with it: isolate from blood specimen sampled before antibiotic treatment. The procedure:
as §1
According to Step 1 to Step 5 of Example 1, a pathogenic bacterium rapid identification/quantification test using sepsis patient's specimens (EDTA blood collection tube, 2 mL) was carried out. […] Blood was sampled before treatment with an antibiotic (pretreatment), and 24 hours (after 24 hrs.) and 72 hours (after 72 hrs.) after administration of the antibiotic. At the three points, a pathogenic bacterium rapid identification/quantification test was carried out together with measurement of body temperature, white blood cell count, CRP, presepsin and IL-6. […]

Regarding `CO/N=C(\C(=O)N[C@@H]1C(=O)N2C(C(=O)[O-])=C(C[N+]3(C)CCCC3)CS[C@H]12)c1csc(N)n1` [cefepim], the drug sensitivity entry with S. pneumoniae was “medium-level sensitivity”. The drug sensitivity result in the assay with K. oxytoca is “sensitive”. For the same compound, in assay [1] (Case 2, 24 h after antibiotic), the “BT (body temperature)” value was determined as 36.4 °C, the WBC is listed as 418.1 × 100/μL, the CRP is reported as 240.0 mg/L and the Presepsin came out at 6202 ng/mL. In assay [1] (Case 2, 24 h after antibiotic), the IL-6 is 7400 pg/mL and the “Pathogen (Ave)” value is reported as 31453 cells/ml. Also, in assay [1] (Case 2, 72 h after antibiotic), the “BT (body temperature)” value is 36.3 °C, the WBC is given as 348.7 × 100/μL, the CRP worked out at 145.5 mg/L and the Presepsin came out at 6060 ng/mL. In addition, in assay [1] (Case 2, 72 h after antibiotic), the IL-6 came to 168 pg/mL and the “Pathogen (Ave)” value was found to be 2066 cells/ml. The drug sensitivity entry in the assay on H. influenzae is listed as “sensitive”.

As to `C[C@@H](O)[C@H]1C(=O)N2C(C(=O)O)=C(S[C@@H]3CN[C@H](C(=O)N(C)C)C3)[C@H](C)[C@H]12` [meropenem], in the assay with Escherichia coli [2] (Case 4, 24 h after antibiotic), the “BT (body temperature)” value was determined as 37.9 °C, the IL-6 is given as 85.8 pg/mL, the CRP is listed as 223.1 mg/L and the WBC is 301.4 × 100/μL. Also, in the assay with Escherichia coli [2] (Case 4, 24 h after antibiotic), the Presepsin was 1729 ng/mL and the “Pathogen (Ave)” value is 248 cells/ml. Also, in the assay with Escherichia coli [2] (Case 4, 72 h after antibiotic), the “BT (body temperature)” value was 37.2 °C, the IL-6 is 20.7 pg/mL, the CRP is 86.4 mg/L and the WBC is on record as 98.7 × 100/μL. Moreover, in the assay on Escherichia coli [2] (Case 4, 72 h after antibiotic), the Presepsin was 1138 ng/mL and the “Pathogen (Ave)” value is 0 cells/ml. In the assay with Escherichia coli [3] (Case 1, 24 h after antibiotic), the “BT (body temperature)” value was 37.9 °C, the IL-6 turned out to be 85.8 pg/mL, the CRP is 223.1 mg/L and the WBC is listed as 301.4 × 100/μL. Also, in the assay with Escherichia coli [3] (Case 1, 24 h after antibiotic), the Presepsin was 1729 ng/mL and the “Pathogen (Ave)” value came out at 248 cells/ml. In the assay on Escherichia coli [3] (Case 1, 72 h after antibiotic), the “BT (body temperature)” value is 37.2 °C, the IL-6 amounted to 20.7 pg/mL, the CRP was found to be 86.4 mg/L and the WBC is 98.7 × 100/μL. In the assay with Escherichia coli [3] (Case 1, 72 h after antibiotic), the Presepsin came to 1138 ng/mL and the “Pathogen (Ave)” value is reported as 0 cells/ml. Moreover, the drug sensitivity entry in the assay with Escherichia coli [4] is recorded as “sensitive”.

These data come from patent publication US20210102239A1, “METHOD FOR DETERMINING BACTERIAL NUMBER IN SPECIMEN” (MITSUI CHEMICALS, INC., priority 2017, published 2021).
